Source: paper PMC7114325 (Antiviral Research, 2008)

Columns and labels:
in vitro [1] = details: hamster
in vitro [2] = details: African green monkey
West Nile virus = details: cited from earlier work

Compound | CC50 (in vitro [1]) [µM] | CC50 (in vitro [2]) [µM] | activity against West Nile virus (West Nile virus) | CC50 (Vero E6 cells) [µM] | CC50 (BHK-21 cells) [µM]
CCOC(=O)c1cnc2ccc(OCC)cc2c1NCc1ccccc1 [Compound C26505, 4-Benzylamino-6-ethoxy-quinoline-3-carboxylic acid ethylester] | 78 ± 4.87 | > 100 | active | – | –
COc1cc(/C=C(/NC(=O)c2ccccc2)C(=O)NNC(=O)CN)ccc1O [Compound C11472, (E)-N′-(2-aminoacetyl)-2-(benzamido)-3-(4-hydroxy-3-methoxyphenyl)acrylohydrazide] | > 100 | 82 ± 4.33 | – | – | –
CC(C)=CCC[C@](C)(O)C1CC[C@@H]2C1CC[C@H]1C2(C)CC[C@H]2C(C)(C)C(=O)CCC12C (stereo partly drawn) [Compound C01225, (5R,9S,14R)-dodecahydro-17-((S)-2-hydroxy-6-methylhept-5-en-2-yl)-4,4,8,10-tetramethyl-2Hcyclopenta[a]phenanthren-3(4H,9H,14H)-one] | > 100 | > 100 | – | – | –
NC(=O)CCS(=O)(=O)c1ccc(Cl)cc1 [Compound C03455, 3-(4-Chlorobenzenesulfonyl)-propionamide] | 87 ± 5.23 | > 100 | active | – | –
CC1=C(C(=O)OCCc2ccccc2)C(c2ccccc2[N+](=O)[O-])C2=C(CCCC2=O)N1 (stereo not shown) [Compound C12344, 3-Quinolinecarboxylic acid, 1,4,5,6,7,8-hexahydro-2-methyl-4-(2-nitrophenyl)-5-oxo-, 2-phenylethyl ester] | > 100 | > 100 | – | – | –
N#Cc1c(N)nc(Sc2ccc(Cl)cc2)c(C#N)c1-c1cccs1 [Compound C47655, 2-Amino-6-[(4-chlorophenyl)thio]-4-(2-thienyl)pyridine-3,5-dicarbonitrile] | > 100 | > 100 | – | – | –
S-Nitroso-N-acetyl penicillamine [Compound C38477] | – | – | – | 84 ± 2.96 | 58 ± 1.22
